Assay results as given in US20170101431A1, “NUCLEOSIDE DERIVATIVES FOR THE TREATMENT OF CANCER” (IDENIX PHARMACEUTICALS LLC, priority 2014, published 2017).
Where two headings read alike, the source gives them in different places.

Test system: AML samples (live leukemic cells from bone marrow or peripheral blood of patients)
Assay: Ex-vivo effect on AML patient samples (depletion of live leukemic cells, flow cytometry, Annexin V)
Type: cell-based, human
Protocol: Patient samples were obtained from a non-interventional and prospective study. The study included samples from adult patients over 18 years of age who were diagnosed with Acute Myeloid Leukemia (AML).
In one embodiment, the method of data acquisition was performed as follows: on day 1 bone marrow (BM) or peripheral blood (PB) patient sample was received. A small part was separated from the rest of the sample for validation, while the majority of the sample was diluted with culture media and plated into 96-well plates previously prepared with the desired compounds and compound combinations, e.g., a compound or compound combination described herein. The number of live leukemic cells seeded in each well was fixed between 8000 and 32000, depending on the percentage of leukemic cells for each sample. […] Antibodies were added to identify leukemic cells using a gating strategy based on FSC/SSC and expression or lack of expression of different surface markers. The monoclonal antibodies selection was performed to optimize the identification of leukemic cell in each sample.
In one embodiment, non-limiting examples of biomarkers such as the biomarkers CD34, CD45, CD117, and HLADR known as “backbone markers” for AML (van Dongen, J. J. and A. Orfao, EuroFlow: Resetting leukemia and lymphoma immunophenotyping. Basis for companion diagnostics and personalized medicine, Leukemia, 2012, 26, 1899-907) were included in the combination.
In one embodiment, antibody combinations such as CD117/CD45, CD34/CD45, and HLADR/CD45 were used. Live leukemic cells were identified by their light scatter properties (FSC^int/hi/SSC^int) in the absence of Annexin-V-FITC staining. FSC/SSC selection was performed to exclude debris. The average percentage of cell viability upon receipt of the sample was 80% and samples were only processed if the viability was greater than 50%.
In one embodiment, sample validation was performed as follows: BM and PB samples were extracted under sterile conditions and received in the laboratory within 24 hours of extraction. Initial analysis evaluated the number of pathological cells and their viability. Different volumes of sample (1 μL, 3 μL, 5 μL and 7 μL) were aliquoted in duplicate into a 96-well plate. To lyse red blood cells, 180 μL of ammonium chloride lysis solution was added to each well (2 g KHCO3, 16.58 g NH4Cl, 0.074 g Na2EDTA2.H2O, H2O to […]). Following a 10 min incubation period at 4° C., plate was centrifuged for 5 min at 1200 rpm and the supernatant removed. The lysis step was performed twice. To analyze, 20 μL of a combination of Annexin V-FITC (Immunostep, Salamanca, Spain), binding buffer (BB, 2.4 g HEPES, 8.19 g NaCl, 0.37 g Cl2Ca, H2O to […]), and the following monoclonal antibodies (mAb) were added to each well: CD117 (clone 104D2)-PE (Becton Dickinson, San Jose, Calif., US), CD34 (clone 581)-PerCP (BioLegend, San Diego, Calif., US), HLADR (clone L243)-PB (BioLegend) and CD45 (HI30)-PO (Life Technologies, Carlsbad, Calif., US) (van Dongen, J. J., et al., EuroFlow antibody panels for standardized n-dimensional flow cytometric immunophenotyping of normal, reactive and malignant leukocytes, Leukemia, 2012, 26, 1908-75). After 15 min of incubation at room temperature in the dark, a wash step was performed using binding buffer solution. The pellet was resuspended in 30 μL BB for analysis in Vivia's ExviTech© platform. Cell count and viability upon arrival were computed and the optimal volume of sample to use per well was determined.
In one embodiment, the assay was performed according to following method: the whole sample was diluted with RPMI 1640, supplemented with 20% (v/v) FBS (Thermo Scientific, Waltham, Mass., US), 2% HEPES, 1% antibiotic (Zell Shield, Labclinics, Barcelona, Spain) and 1% L-glutamine 200 mM (Lonza, Hopkinton, Mass., US) to a final volume of 60 μL per well. […]

[1] = Homo sapiens, 72 h, plates incubated for 72 hours
[2] = Homo sapiens, 72 h, plates incubated for 72 hours, read-out: Emax
[3] = Homo sapiens, 48 h, plates incubated for 48 hours
[4] = Homo sapiens, 48 h, plates incubated for 48 hours, read-out: Emax

**Q.** Which EC50 (plates incubated for 72 hours) does the source give for `Cn1c(COP(=O)(NCc2ccccc2)OC[C@H]2O[C@@H](n3ccc(N)nc3=O)C(O)C2O)cnc1[N+](=O)[O-]` (single isomer, unassigned) [drawing 667] here?
**A.** 1 to 10 µM

**Q.** Which results are given for `CCOC(=O)[C@H](CC(C)C)NP1(=O)OC[C@H]2O[C@@H](n3cnc4c(N)nc(F)nc43)[C@@H](O)[C@@H]2O1` (single isomer, unassigned) [drawing 673]?
**A.** EC50 (plates incubated for 48 hours): ≥ 20 µM; Emax (plates incubated for 48 hours): A (A=0-10%)

**Q.** For `CCCCCCCC/C=C/CCCCCCCC(=O)Nc1ccn([C@@H]2O[C@H](COP(=O)(N[C@@H](CC(C)C)C(=O)OC)N[C@@H](CC(C)C)C(=O)OC)C(O)C2O)c(=O)n1` (stereo partly shown), which EC50 [1] is on record?
**A.** 10 to 20 µM

**Q.** What about the Emax [2] of the same compound?
**A.** > 20%

**Q.** How did the EC50 [1] turn out when `CCOC(=O)[C@H](CC(C)C)NP(=O)(OCC(=O)OC)OC[C@H]1O[C@@H](n2ccc(N)nc2=O)C(O)C1O` (single isomer, unassigned) [drawing 664] was run?
**A.** 1 to 10 µM

**Q.** What about the Emax [2] of the same compound?
**A.** 0 to 10%

**Q.** What does the source list for `CC(C)OP1(=O)OC[C@H]2O[C@@H](N3C=NC4C(N)=NC(F)=NC43)[C@@H](O)[C@@H]2O1` (single isomer, unassigned) [drawing 675]?
**A.** EC50 [3]: 10 to 20 µM; Emax [4]: > 20%

**Q.** How did the EC50 (plates incubated for 72 hours) turn out when `CCOC(=O)[C@H](CC(C)C)NP(=O)(OCC(=O)OC)OC[C@H]1O[C@@H](n2ccc(N)nc2=O)C(O)C1O` (single isomer, unassigned) [drawing 665] was run?
**A.** 1 to 10 µM

**Q.** How did the EC50 (plates incubated for 48 hours) turn out when `CC(C)OP1(=O)OC[C@H]2O[C@@H](N3C=NC4C(N)=NC(F)=NC43)[C@@H](O)[C@@H]2O1` (single isomer, unassigned) [drawing 676] was run?
**A.** ≥ 20 µM

**Q.** And the Emax (plates incubated for 48 hours)?
**A.** C (C>20%)

**Q.** Which results are given for `COC(=O)COP(=O)(N[C@@H](CC(C)C)C(=O)OC)OC[C@H]1O[C@@H](n2ccc(N)nc2=O)C(O)C1O` (single isomer, unassigned) [drawing 663]?
**A.** EC50 (plates incubated for 72 hours): 10 to 20 µM; Emax (plates incubated for 72 hours): A (A=0-10%)

**Q.** For `CCOC(=O)[C@H](CC(C)C)NP(=O)(O)OC[C@H]1O[C@@H](N2C=NC3C(N)=NC(F)=NC32)[C@@H](O)[C@@H]1O` (stereo partly shown), which EC50 [3] is on record?
**A.** 10 to 20 µM

**Q.** And the Emax [4]?
**A.** > 20%

**Q.** What does the source list for `CCOC(=O)[C@H](CC(C)C)NP1(=O)OC[C@H]2O[C@@H](n3cnc4c(N)nc(F)nc43)[C@@H](O)[C@@H]2O1` (single isomer, unassigned) [drawing 672]?
**A.** EC50 [3]: 10 to 20 µM; Emax (plates incubated for 48 hours): C (C>20%)

**Q.** For `CCOC(=O)[C@H](C)NP1(=O)OC[C@H]2O[C@@H](n3cnc4c(N)nc(F)nc43)[C@@H](O)[C@@H]2O1` (single isomer, unassigned) [drawing 680], which EC50 [3] is on record?
**A.** 10 to 20 µM

**Q.** And the Emax [4]?
**A.** > 20%

**Q.** `CC(C)OC(=O)[C@H](C)NP(=O)(OC[C@H]1O[C@@H](n2cnc3c(N)nc(F)nc32)[C@@H](O)[C@@H]1O)Oc1ccccc1` (stereo partly shown) was tested. Which EC50 (Homo sapiens, plates incubated for 48 hours) did it give?
**A.** ≥ 20 µM

**Q.** What about the Emax (Homo sapiens, plates incubated for 48 hours, read-out: Emax) of the same compound?
**A.** 0 to 10%

**Q.** Which results are given for `CC(C)(CO)C(=O)SCCOP(=O)(NCc1ccccc1)OC[C@H]1O[C@@H](n2cnc3c(N)nc(Cl)nc32)C(F)C1O` (single isomer, unassigned) [drawing 658]?
**A.** EC50 (plates incubated for 72 hours): 1 to 10 µM; Emax (plates incubated for 72 hours): B (B=10-20%)

**Q.** Which results are given for `COC(=O)COP(=O)(N[C@@H](CC(C)C)C(=O)OC)OC[C@H]1O[C@@H](n2ccc(N)nc2=O)C(O)C1O` (single isomer, unassigned) [drawing 662]?
**A.** EC50 (plates incubated for 72 hours): 1 to 10 µM; Emax (plates incubated for 72 hours): B (B=10-20%)

**Q.** `Nc1nc(Cl)nc2c1ncn2[C@@H]1O[C@H](COP(=O)(O)NCc2ccccc2)C(O)C1F` (stereo partly shown) was tested. Which EC50 [1] did it give?
**A.** ≤ 1 µM

**Q.** What about the Emax [2] of the same compound?
**A.** 0 to 10%

**Q.** For `CC(C)(CO)C(=O)SCCOP(=O)(NCc1ccccc1)OC[C@H]1O[C@@H](n2cnc3c(N)nc(Cl)nc32)C(F)C1O` (single isomer, unassigned) [drawing 657], which EC50 [1] is on record?
**A.** ≤ 1 µM

**Q.** And the Emax [2]?
**A.** 10 to 20%

**Q.** `Nc1nc(F)nc2c1ncn2[C@@H]1O[C@H](COP(=O)(O)NCc2ccccc2)[C@@H](O)[C@@H]1O` was tested. Which EC50 [3] did it give?
**A.** 1 to 10 µM

**Q.** And the Emax [4]?
**A.** 0 to 10%

**Q.** Which EC50 (plates incubated for 72 hours) does the source give for `COC(=O)COP(=O)(N[C@@H](CC(C)C)C(=O)OC)OC[C@H]1O[C@@H](n2cnc3c(N)nc(Cl)nc32)C(F)C1O` (single isomer, unassigned) [drawing 660] here?
**A.** 1 to 10 µM

**Q.** What about the Emax (plates incubated for 72 hours) of the same compound?
**A.** B (B=10-20%)

**Q.** How did the EC50 [1] turn out when `Nc1ccn([C@@H]2O[C@H](COP(=O)(O)NCc3ccccc3)C(O)C2O)c(=O)n1` (stereo partly shown) was run?
**A.** 10 to 20 µM

**Q.** And the Emax [2]?
**A.** 0 to 10%

**Q.** Which EC50 (plates incubated for 72 hours) does the source give for `CCOC(=O)C(C)NP1(=O)OCC2O[C@@H](n3cnc4c(N)nc(Cl)nc43)[C@@H](F)[C@@H]2O1` (single isomer, unassigned) [drawing 654] here?
**A.** 10 to 20 µM

**Q.** What about the Emax (plates incubated for 72 hours) of the same compound?
**A.** B (B=10-20%)

**Q.** How did the EC50 [3] turn out when `COC(=O)COP(=O)(NC(CC(C)C)C(=O)OC)OC[C@H]1O[C@@H](n2cnc3c(N)nc(F)nc32)[C@@H](O)[C@@H]1O` (stereo partly shown) was run?
**A.** 1 to 10 µM

**Q.** And the Emax [4]?
**A.** 0 to 10%

**Q.** What does the source list for `CC(C)(O)C(=O)SCCOP(=O)(OCCSC(=O)C(C)(C)CO)OC[C@H]1O[C@@H](N2C=NC3C(N)=NC(Cl)=NC32)[C@@H](F)[C@@H]1O` (stereo partly shown)?
**A.** EC50 [1]: 1 to 10 µM; Emax [2]: 10 to 20%

**Q.** With `CCOC(=O)[C@H](C)NP1(=O)OC[C@H]2O[C@@H](n3cnc4c(N)nc(F)nc43)[C@@H](O)[C@@H]2O1` (single isomer, unassigned) [drawing 681] as the compound, how does the EC50 (plates incubated for 48 hours) read?
**A.** 10 to 20 µM

**Q.** For `COC(=O)[C@H](CC(C)C)NP(=O)(N[C@@H](CC(C)C)C(=O)OC)OC[C@H]1O[C@@H](n2cnc3c(N)nc(Cl)nc32)C(F)C1O` (stereo partly shown), which EC50 [1] is on record?
**A.** 1 to 10 µM

**Q.** And the Emax [2]?
**A.** > 20%

**Q.** How did the EC50 [1] turn out when `Cn1c(COP(=O)(NCc2ccccc2)OC[C@H]2O[C@@H](n3ccc(N)nc3=O)C(O)C2O)cnc1[N+](=O)[O-]` (single isomer, unassigned) [drawing 666] was run?
**A.** 1 to 10 µM

**Q.** What about the Emax [2] of the same compound?
**A.** 0 to 10%

**Q.** For `COC(=O)[C@H](CC(C)C)NP(=O)(N[C@@H](CC(C)C)C(=O)OC)OC[C@H]1O[C@@H](N2C=NC3C(N)=NC(F)=NC32)[C@@H](O)[C@@H]1O` (stereo partly shown), which EC50 [3] is on record?
**A.** ≥ 20 µM

**Q.** And the Emax [4]?
**A.** 10 to 20%

**Q.** Which results are given for `CC(C)(CO)C(=O)SCCOP(=O)(NCc1ccccc1)OC[C@H]1O[C@@H](n2ccc(N)nc2=O)C(O)C1O` (stereo partly shown)?
**A.** EC50 [1]: 10 to 20 µM; Emax [2]: 0 to 10%

**Q.** What does the source list for `COC(=O)COP(=O)(N[C@@H](CC(C)C)C(=O)OC)OC[C@H]1O[C@@H](n2cnc3c(N)nc(Cl)nc32)C(F)C1O` (single isomer, unassigned) [drawing 659]?
**A.** EC50 [1]: 1 to 10 µM; Emax [2]: > 20%

**Q.** What does the source list for `CCOC(=O)C(C)NP1(=O)OCC2O[C@@H](n3cnc4c(N)nc(Cl)nc43)[C@@H](F)[C@@H]2O1` (single isomer, unassigned) [drawing 653]?
**A.** EC50 (plates incubated for 72 hours): ≤ 1 µM; Emax (plates incubated for 72 hours): A (A=0-10%)
